# In ChEMBL document CHEMBL4819053, “Alkyne-Bridged α-Conotoxin Vc1.1 Potently Reverses Mechanical Allodynia in Neuropathic Pain Models” (J Med Chem, 2021):
# Activity calls are given as the source filed them.
# Test system: Rattus norvegicus
# Experiment: Antiallodynic activity in Sprague-Dawley rat model of neuropathic mechanical allodynia assessed as increase in paw withdrawal threshold at 100 mg/kg, po measured at 2 to 6 hrs post last dose by von Frey test
# Type: functional, organism-based
# Details: time 2-6 hrs
compound,measurement,value
NCC1(CC(=O)O)CCCCC1,Activity,Active
